# Assays:
# [1] = tested on: Neisseria gonorrhoeae strain WHO Z; assay: MIC of Triton X-100 with/without PBT2; type: cell-based; settings: 0.156 mg/L (sub-MIC) PBT2
# Source text: Without wishing to be bound by theory, the inventors hypothesise that this may due to the fact PBT2 is a derivative of the iron chelator clioquinol and PBT2 has the capacity to chelate a range of heavy metals including iron. Genes encoding metal homeostasis proteins (blue dots) are presented in the volcano plot (FIG. 3). Metal homeostasis was previously identified as a crucial feature of gonococcal biology, and therefore it is postulated this may be an “Achilles' heel” with respect to Neisseria gonorrhoeae ionophore sensitivity. […] MpeR is an iron-repressed, AraC-like protein that regulates the mtr efflux locus (involved in antimicrobial susceptibility) in Neisseria gonorrhoeae. Up-regulation of mpeR (e. g. by PBT2) down-regulates MtrF and, in turn, would increase Neisseria gonorrhoeae sensitivity to the antimicrobial detergent, Triton X-100 (22). […] Thus, without wishing to be bound to theory, the inventors hypothesise that PBT2 may influence bacterial iron homeostasis and trigger general defence mechanisms, such as Mtr-mediated antimicrobial efflux, but the Mtr-system may be unable to protect against PBT2.
# [2] = tested on: Neisseria meningitidis 8013 (C); assay: MIC of PBT2 (broth and agar)
# [3] = tested on: Helicobacter pylori 26695; assay: MIC of PBT2 alone (agar); type: cell-based
# Method: The MIC of PBT2 against four Helicobacter pylori 26695 strains was determined. The strains tested were sensitive to PBT2.
# Neisseria meningitidis = assay: MIC / susceptibility across Neisseria meningitidis strains; settings: all strains tested; for MIC: Neisseria meningitidis
# [4] = tested on: Neisseria gonorrhoeae strain WHO Z; assay: Ex vivo Neisseria gonorrhoeae infection of human cervical (Pex) cells; type: cell-based
# Source text: FIG. 4: Chart indicating PBT2 can cure Neisseria gonorrhoeae infection of human cervical (Pex) cells. […] Ceftriaxone (CRO, positive control) is currently recommended for gonorrhoea treatment. Veh—0.1% DMSO vehicle control; UT—untreated; * p<0.0001 versus vehicle for CRO or PBT2 treatment.
# To assess the ability of PBT2 to cure an established gonococcal infection in a human ex vivo system, primary human cervical epithelial (Pex) cells were challenged with Neisseria gonorrhoeae strain WHO Z for 90 min and then treated with 0.1% DMSO (vehicle control), PBT2 (0.016 mg/L to 4.695 mg/L), or ceftriaxone (0.5 mg/L, positive control) for 24 h. Viable gonococci were then enumerated. […] PBT2-induced Pex cell cytotoxicity was not observed during the assay.
# [5] = cited from earlier work
# [6] = tested on: Streptococcus uberis (S. uberis); settings: in the absence of an antibiotic; cited from earlier work
# [7] = tested on: Neisseria gonorrhoeae WHO X; assay: MIC of PBT2 alone (broth and agar); type: cell-based
# Source text: (§1) 13 multidrug resistant WHO strains of Neisseria gonorrhoeae were selected to cover antimicrobial resistance phenotypes to all the antibiotics currently used. MS11 is a laboratory strain and ATCC49226 is a CLSI standard MIC control strain (CLSI. 2022. Performance Standards for Antimicrobial Susceptibility Testing, 32nd Edition. Clinical and Laboratory Standards Institute which is hereby incorporated by reference in its entirety). The MICs (minimum inhibitory concentration) of PBT2 alone in the absence of zinc or a further antimicrobial agent against these Neisseria gonorrhoea strains are summarised in Table 1.
# [8] = tested on: Neisseria gonorrhoeae WHO F; assay: MIC of PBT2 alone (broth and agar); type: cell-based
# Source text: as §1
# [9] = tested on: Neisseria gonorrhoeae WHO P; assay: MIC of PBT2 alone (broth and agar); type: cell-based
# Source text: as §1
# [10] = tested on: Neisseria gonorrhoeae MS11; assay: MIC of PBT2 alone (broth and agar); type: cell-based
# Source text: as §1
# [11] = tested on: Neisseria gonorrhoeae WHO C; assay: MIC of PBT2 alone (broth and agar); type: cell-based
# Source text: as §1
# [12] = tested on: Neisseria gonorrhoeae WHO K; assay: MIC of PBT2 alone (broth and agar); type: cell-based
# Source text: as §1
# [13] = tested on: Neisseria gonorrhoeae WHO M; assay: MIC of PBT2 alone (broth and agar); type: cell-based
# Source text: as §1
# [14] = tested on: Neisseria gonorrhoeae WHO N; assay: MIC of PBT2 alone (broth and agar); type: cell-based
# Source text: as §1
# [15] = tested on: Neisseria gonorrhoeae WHO Y; assay: MIC of PBT2 alone (broth and agar); type: cell-based
# Source text: as §1
# [16] = tested on: Neisseria gonorrhoeae WHO G; assay: MIC of PBT2 alone (broth and agar); type: cell-based
# Source text: as §1
# [17] = tested on: Neisseria gonorrhoeae WHO L; assay: MIC of PBT2 alone (broth and agar); type: cell-based
# Source text: as §1
# [18] = tested on: Neisseria gonorrhoeae WHO Z; assay: MIC of PBT2 alone (broth and agar); type: cell-based
# Source text: as §1
# [19] = tested on: Neisseria gonorrhoeae WHO E; assay: MIC of PBT2 alone (broth and agar); type: cell-based
# Source text: as §1
# [20] = tested on: Neisseria gonorrhoeae WHO O; assay: MIC of PBT2 alone (broth and agar); type: cell-based
# Source text: as §1
# [21] = tested on: Neisseria meningitidis Z2491 (A); assay: MIC of PBT2 (broth and agar)
compound,measurement,setting,value
"CN(C)Cc1ccc2c(Cl)cc(Cl)c(O)c2n1 [PBT2, 5,7-dichloro-2-[(dimethylamino)methyl]quinolin-8-ol]",effect on sensitivity to Triton X-100,[1],increased the sensitivity
same,MIC,[2]; agar,0.078 µg/mL
same,MIC,[2]; broth,0.156 µg/mL
same,MIC,[3],1.25 µg/mL
same,MIC,Neisseria meningitidis; agar,0.039 to 0.156 µg/mL
same,MIC,Neisseria meningitidis; broth,0.156 to 0.625 µg/mL
same,sensitivity,Neisseria meningitidis,sensitive
same,reduction in Neisseria gonorrhoeae survival,"[4]; 24 h post-treatment, PBT2 0.016 to 4.695 mg/L, FIG. 4",dose-dependent reduction
same,effectiveness versus ceftriaxone (0.5 mg/L),"[4]; >0.157 mg/L PBT2, 24 h","comparable effectiveness to that observed for the control antibiotic, ceftriaxone"
same,p versus vehicle,"[4]; survival at 24 h, FIG. 4, CRO 0.5 mg/L",< 0.0001
same,safety and tolerability,"[5]; 250 mg daily for up to 12 months, without serious side effects or withdrawal symptoms","safe and well-tolerated, without serious side effects or withdrawal symptoms"
same,safety,[5]; data from phase II clinical trials,safe-for-human-use
same,antibacterial activity,[6],neither PBT2 nor zinc alone displayed antibacterial activity which would be suitable to treat an infection
same,MIC,[7]; agar,0.625 µg/mL
same,MIC,[7]; broth,0.156 µg/mL
same,MIC,[8]; agar,0.312 µg/mL
same,MIC,[8]; broth,0.156 µg/mL
same,MIC,[9]; agar,0.625 µg/mL
same,MIC,[9]; broth,0.312 µg/mL
same,MIC,[10]; agar,0.625 µg/mL
same,MIC,[10]; broth,0.156 µg/mL
same,MIC,[11]; agar,0.625 µg/mL
same,MIC,[11]; broth,0.312 µg/mL
same,MIC,[12]; agar,0.625 µg/mL
same,MIC,[12]; broth,0.312 µg/mL
same,MIC,[13]; agar,0.625 µg/mL
same,MIC,[13]; broth,0.312 µg/mL
same,MIC,[14]; agar,0.625 µg/mL
same,MIC,[14]; broth,0.156 µg/mL
same,MIC,[15]; agar,0.625 µg/mL
same,MIC,[15]; broth,0.156 µg/mL
same,MIC,[16]; agar,0.312 µg/mL
same,MIC,[16]; broth,0.156 µg/mL
same,MIC,[17]; agar,0.625 µg/mL
same,MIC,[17]; broth,0.156 µg/mL
same,MIC,[18]; MIC concentration used in time-kill assay,0.313 µg/mL
same,MIC,[18]; agar,0.625 µg/mL
same,MIC,[18]; broth,0.312 µg/mL
same,MIC,[19]; agar,0.312 µg/mL
same,MIC,[19]; broth,0.156 µg/mL
same,MIC,[20]; agar,0.625 µg/mL
same,MIC,[20]; broth,0.156 µg/mL
same,MIC,[21]; agar,0.039 µg/mL
same,MIC,[21]; broth,0.156 µg/mL

# Reference: patent publication US20260306476A1, “ANTIBACTERIAL COMPOUND PBT2” (priority 2022, published 2026)
